From ChEMBL document CHEMBL1201862, “PubChem BioAssay data set” (2004)
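The compound was tested at five concentrations on cells cultured in 96-well plates, with a 48-hour exposure period. GI50: concentration for 50% inhibition of growth.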 Activity calls are given as the source filed them. Rule as the data show it: active = GI50 up to about 1.1 µM and inactive = higher.

Assays:
Assay in all cases: DTP human tumour cell line panel, 48 h
CAKI-1 = test system: CAKI-1
OVCAR-5 = test system: OVCAR-5
SR = test system: SR
SK-MEL-5 = test system: SK-MEL-5
SF-268 = test system: SF-268
PC-3 = test system: PC-3
UACC-257 = test system: UACC-257
SN12C = test system: SN12C
NCI-H226 = test system: NCI-H226
SNB-19 = test system: SNB-19
EKVX = test system: EKVX
MOLT-4 = test system: MOLT-4
SF-295 = test system: SF-295
NCI-H522 = test system: NCI-H522
SK-MEL-28 = test system: SK-MEL-28
HCT-116 = test system: HCT-116
BT-549 = test system: BT-549
COLO 205 = test system: COLO 205
K562 = test system: K562

Row | Compound | GI50 (CAKI-1) | GI50 (OVCAR-5) | GI50 (SR) | GI50 (SK-MEL-5) | GI50 (SF-268) | GI50 (PC-3) | GI50 (UACC-257) | GI50 (SN12C) | GI50 (NCI-H226) | GI50 (SNB-19) | GI50 (EKVX) | GI50 (MOLT-4) | GI50 (SF-295) | GI50 (NCI-H522) | GI50 (SK-MEL-28) | GI50 (HCT-116) | GI50 (BT-549) | GI50 (COLO 205) | GI50 (K562)
1 | COC(=O)c1ccc(CCc2cc(O)c(Br)cc2O)cc1 | 10.3 µM (inactive) | 18.5 µM (inactive) | 3.2 µM (inactive) | 11.5 µM (inactive) | 13.5 µM (inactive) | 8.02 µM (inactive) | 15.5 µM (inactive) | 15 µM (inactive) | 21.4 µM (inactive) | 17.4 µM (inactive) | 16.9 µM (inactive) | 2.42 µM (inactive) | 14.1 µM (inactive) | 3.16 µM (inactive) | 17.5 µM (inactive) | 5.38 µM (inactive) | 4.63 µM (inactive) | 12.6 µM (inactive) | 1.74 µM (inactive)
2 | O=C(O)c1nc2ccccc2nc1NCc1ccc(F)cc1 | 62.4 µM (inactive) | > 100 µM (inactive) | 42.4 µM (inactive) | 35.8 µM (inactive) | 57 µM (inactive) | > 100 µM (inactive) | > 100 µM (inactive) | > 100 µM (inactive) | 51.6 µM (inactive) | 47.5 µM (inactive) | 45.8 µM (inactive) | 67 µM (inactive) | 38 µM (inactive) | 48.9 µM (inactive) | > 100 µM (inactive) | 41.6 µM (inactive) | > 100 µM (inactive) | 31.9 µM (inactive) | 56.1 µM (inactive)
3 | COc1c(Br)cc2c(c1OC)C(Br)CCC(Br)(Br)C2=O (centres undefined) | 2.77 µM (inactive) | 4.92 µM (inactive) | 0.0368 µM (active) | 0.653 µM (active) | 0.986 µM (active) | 1.44 µM (inactive) | 3.17 µM (inactive) | 0.382 µM (active) | 2.21 µM (inactive) | 4.36 µM (inactive) | 3.93 µM (inactive) | < 0.0183 µM (active) | 2.52 µM (inactive) | 0.393 µM (active) | 2.5 µM (inactive) | 0.273 µM (active) | 0.527 µM (active) | 1.82 µM (inactive) | 0.377 µM (active)
4 | O=c1oc2ccccc2c2c1Sc1ccccc1N2 | > 100 µM (inactive) | > 100 µM (inactive) | 53.6 µM (inactive) | 48.9 µM (inactive) | 56.6 µM (inactive) | > 100 µM (inactive) | > 100 µM (inactive) | > 100 µM (inactive) | 82.4 µM (inactive) | > 100 µM (inactive) | 62.2 µM (inactive) | 63.4 µM (inactive) | > 100 µM (inactive) | > 100 µM (inactive) | > 100 µM (inactive) | 89.3 µM (inactive) | > 100 µM (inactive) | > 100 µM (inactive) | > 100 µM (inactive)
5 | O=C(Nc1ccc(Cl)cc1)c1cc(S(=O)(=O)N2CCNNC2=O)c(S)cc1Cl | > 100 µM (inactive) | > 100 µM (inactive) | > 100 µM (inactive) | > 100 µM (inactive) | > 100 µM (inactive) | > 100 µM (inactive) | > 100 µM (inactive) | > 100 µM (inactive) | > 100 µM (inactive) | > 100 µM (inactive) | > 100 µM (inactive) | > 100 µM (inactive) | > 100 µM (inactive) | 24.7 µM (inactive) | > 100 µM (inactive) | > 100 µM (inactive) | 35.7 µM (inactive) | > 100 µM (inactive) | > 100 µM (inactive)
6 | O=C(O)Cc1ccc2c(c1)/C(=C1/Nc3ccccc3C1=O)C(=O)N2 | 24.8 µM (inactive) | > 100 µM (inactive) | 21.9 µM (inactive) | 20.7 µM (inactive) | 58.2 µM (inactive) | 28.6 µM (inactive) | 32.3 µM (inactive) | 56.1 µM (inactive) | 60.8 µM (inactive) | 66.2 µM (inactive) | 26.2 µM (inactive) | 25.8 µM (inactive) | 80.5 µM (inactive) | 35 µM (inactive) | 54.3 µM (inactive) | 24 µM (inactive) | 44.5 µM (inactive) | 35.1 µM (inactive) | 19.2 µM (inactive)
7 | O=c1[nH]c2nccn2c2c1SCCN2 | > 100 µM (inactive) | > 100 µM (inactive) | > 100 µM (inactive) | > 100 µM (inactive) | > 100 µM (inactive) | > 100 µM (inactive) | > 100 µM (inactive) | > 100 µM (inactive) | > 100 µM (inactive) | > 100 µM (inactive) | > 100 µM (inactive) | > 100 µM (inactive) | > 100 µM (inactive) | > 100 µM (inactive) | > 100 µM (inactive) | > 100 µM (inactive) | > 100 µM (inactive) | > 100 µM (inactive) | > 100 µM (inactive)
8 | CCn1c2c(c3c(C(=O)OC)c(O)ccc31)C(=O)c1ccccc1C2=O | 15.5 µM (inactive) | 18.4 µM (inactive) | 11.3 µM (inactive) | 11.7 µM (inactive) | 15.3 µM (inactive) | 12.4 µM (inactive) | 40.6 µM (inactive) | 11.9 µM (inactive) | 9.18 µM (inactive) | 22.3 µM (inactive) | 26 µM (inactive) | 12.1 µM (inactive) | 17.3 µM (inactive) | 5.9 µM (inactive) | 16.9 µM (inactive) | 13.1 µM (inactive) | 12.5 µM (inactive) | 17.1 µM (inactive) | 20.4 µM (inactive)
9 | CCOC(=O)C12OC(CCC1=O)C(C(=O)OC)=C2C(=O)OC (centres undefined) | > 10 µM (inactive) | > 10 µM (inactive) | > 10 µM (inactive) | > 10 µM (inactive) | > 10 µM (inactive) | > 10 µM (inactive) | > 10 µM (inactive) | > 10 µM (inactive) | > 10 µM (inactive) | > 10 µM (inactive) | > 10 µM (inactive) | > 10 µM (inactive) | > 10 µM (inactive) | > 10 µM (inactive) | > 10 µM (inactive) | > 10 µM (inactive) | > 10 µM (inactive) | > 10 µM (inactive) | > 10 µM (inactive)
10 | Cc1csc2nc3[nH]ncc3c(=O)n12 | > 100 µM (inactive) | > 100 µM (inactive) | > 100 µM (inactive) | > 100 µM (inactive) | > 100 µM (inactive) | > 100 µM (inactive) | > 100 µM (inactive) | > 100 µM (inactive) | 40.6 µM (inactive) | > 100 µM (inactive) | > 100 µM (inactive) | > 100 µM (inactive) | > 100 µM (inactive) | > 100 µM (inactive) | > 100 µM (inactive) | > 100 µM (inactive) | > 100 µM (inactive) | > 100 µM (inactive) | > 100 µM (inactive)
11 | NCCCCN(CCCN)C(=O)OCc1ccccc1 | > 100 µM (inactive) | > 100 µM (inactive) | > 100 µM (inactive) | > 100 µM (inactive) | > 100 µM (inactive) | > 100 µM (inactive) | > 100 µM (inactive) | > 100 µM (inactive) | > 100 µM (inactive) | > 100 µM (inactive) | > 100 µM (inactive) | > 100 µM (inactive) | > 100 µM (inactive) | > 100 µM (inactive) | > 100 µM (inactive) | > 100 µM (inactive) | > 100 µM (inactive) | > 100 µM (inactive) | > 100 µM (inactive)
